In patent publication US12029768B2, “Probiotics useful for eradicating helicobacter pylori infection” (DACF S.r.l., priority 2018, dated 2024):
Like-named read-outs stand apart in the source and are kept apart here.

Tested on: H. pylori
Assay: Checkerboard method, adjuvant effect of probiotic supernatant on antibiotic MIC/MBC
Format: cell-based, Helicobacter pylori
Conditions: for MBC / MIC: Helicobacter pylori; for MBC: read-out: MBC towards the H. pylori strain; for MIC: read-out: MIC towards the H. pylori strain
[1] = probiotic supernatant (L. acidophilus La-14) added to antibiotic

| SMILES | MBC (antibiotic alone) [µg/mL] | MIC (antibiotic alone) [µg/mL] | MBC [1] [µg/mL] | MIC [1] [µg/mL] | MIC with probiotic supernatant as fraction of the original MIC [1] | increase of antibiotic activity against H. pylori [1] [folds] |
| --- | --- | --- | --- | --- | --- | --- |
| CC1(C)S[C@@H]2[C@H](NC(=O)[C@H](N)c3ccc(O)cc3)C(=O)N2[C@H]1C(=O)O [Amoxicillin, amoxicillin] | 0.5 | 0.25 | 0.0005 | 0.00025 | 1/1000 | 1000 |
| CC[C@H]1OC(=O)[C@H](C)[C@@H](O[C@H]2C[C@@](C)(OC)[C@@H](O)[C@H](C)O2)[C@H](C)[C@@H](O[C@@H]2O[C@H](C)C[C@H](N(C)C)[C@H]2O)[C@](C)(OC)C[C@@H](C)C(=O)[C@H](C)[C@@H](O)[C@]1(C)O [Clarithromycin, clarithromycin] | 24 | 12 | 0.25 | 0.125 | 1/100 | 100 |
